Reference: ChEMBL document CHEMBL4177762, “Combined Approach of Backbone Amide Linking and On-Resin N-Methylation for the Synthesis of Bioactive and Metabolically Stable Peptides” (J Med Chem, 2018)
Converted amounts (≈) assume the structure as drawn. The source made the active and inactive calls. No cut-off for these calls is given here. Non-standard residues stand in square brackets, D forms with d. Residues, ends and D or L forms follow the SMILES beside them. *: point of attachment. NMeVal(β-OH) = CN[C@H](C(=O)O)C(C)(C)O; NH(4-OH-phenethyl) = Oc1ccc(CCN*)cc1; Val(3-OH) = CC(C)(O)[C@H](N)C(=O)O; NMeL = CN[C@@H](CC(C)C)C(=O)O; NHPhenethyl = c1ccc(CCN*)cc1; NMeV = CN[C@H](C(=O)O)C(C)C

Tests used:
L6 = assay: Cytotoxicity against rat L6 cells after 72 hrs by Alamar Blue assay; type: cell-based; conditions: L6, 72 h
[1] = test system: Trypanosoma brucei rhodesiense; assay: Antiprotozoal activity against trypomastigote stage of Trypanosoma brucei rhodesiense STIB900 after 72 hrs by Alamar Blue assay; type: functional, organism-based
Escherichia coli = assay: Antibacterial activity against Escherichia coli ATCC 25922 assessed as growth inhibition up to 128 ug/ml; type: functional, organism-based
Staphylococcus aureus [2] = assay: Antibacterial activity against Staphylococcus aureus ATCC 29213 assessed as growth inhibition up to 128 ug/ml; type: functional, organism-based
Enterococcus faecalis = assay: Antibacterial activity against Enterococcus faecalis ATCC 29212 assessed as growth inhibition up to 128 ug/ml; type: functional, organism-based
Staphylococcus aureus [3] = assay: Antibacterial activity against methicillin-resistant Staphylococcus aureus ATCC 43300 assessed as growth inhibition up to 128 ug/ml; type: functional, organism-based
Pseudomonas aeruginosa = assay: Antibacterial activity against Pseudomonas aeruginosa ATCC 27853 assessed as growth inhibition up to 128 ug/ml; type: functional, organism-based
Micrococcus luteus = assay: Antibacterial activity against Micrococcus luteus ATCC 9341 assessed as growth inhibition up to 128 ug/ml; type: functional, organism-based
[4] = Drug metabolism in Sprague-Dawley rat liver microsomes assessed as CYP450-mediated (S)-2-amino-N-((S)-1-((S)-1-((S)-1-(4-hydroxyphenethylamino)-3-methyl-1-oxobutan-2-ylamino)-3-methyl-1-oxobutan-2-ylamino)-3-methyl-1-oxobutan-2-yl)-3-methylbutanamide formation at 1 mM preincubated with NADPH regenerating system followed by microsome addition measured after 15 to 60 mins by HR-HPLC-MS method; type: ADME; conditions: 1000 µM
[5] = Half life in Galleria mellonella hemolymph plasma at 0.5 mM by HPLC-MS method; type: ADME, cell-free
[6] = Drug metabolism in Sprague-Dawley rat liver microsomes assessed as CYP450-mediated (S)-2-((S)-2-((S)-2-amino-3-methylbutanamido)-3-methylbutanamido)-3-hydroxy-3-methyl-N-((S)-3-methyl-1-oxo-1-(phenethylamino)butan-2-yl)butanamide formation at 1 mM preincubated with NADPH regenerating system followed by microsome addition measured after 15 to 60 mins by HR-HPLC-MS method; type: ADME; conditions: 1000 µM
[7] = Drug metabolism in Sprague-Dawley rat liver microsomes assessed as CYP450-mediated (S)-2-((S)-2-amino-3-methylbutanamido)-3-hydroxy-3-methyl-N-((S)-3-methyl-1-((S)-3-methyl-1-oxo-1-(phenethylamino)butan-2-ylamino)-1-oxobutan-2-yl)butanamide formation at 1 mM preincubated with NADPH regenerating system followed by microsome addition measured after 15 to 60 mins by HR-HPLC-MS method; type: ADME; conditions: 1000 µM
[8] = Drug level in Sprague-Dawley rat liver microsomes assessed as CYP450-mediated compound formation treated with (S)-2-amino-3-methyl-N-((S)-3-methyl-1-((S)-3-methyl-1-((S)-3-methyl-1-oxo-1-(phenethylamino)butan-2-ylamino)-1-oxobutan-2-ylamino)-1-oxobutan-2-yl)butanamide at 1 mM preincubated with NADPH regenerating system followed by microsome addition measured after 15 to 60 mins by HR-HPLC-MS method; type: ADME; conditions: 1000 µM
[9] = Drug metabolism in Sprague-Dawley rat liver microsomes assessed as CYP450-mediated (S)-3-hydroxy-N,3-dimethyl-N-((S)-3-methyl-1-(methyl((S)-3-methyl-1-(methyl((S)-3-methyl-1-oxo-1-(phenethylamino)butan-2-yl)amino)-1-oxobutan-2-yl)amino)-1-oxobutan-2-yl)-2-(methylamino)butanamide formation at 1 mM preincubated with NADPH regenerating system followed by microsome addition measured after 15 to 60 mins by HR-HPLC-MS method; type: ADME; conditions: 1000 µM
[10] = Drug metabolism in Sprague-Dawley rat liver microsomes assessed as CYP450-mediated (S)-2-((S)-N,3-dimethyl-2-(methylamino)butanamido)-N-((S)-1-(((S)-1-(4-hydroxyphenethylamino)-3-methyl-1-oxobutan-2-yl)(methyl)amino)-3-methyl-1-oxobutan-2-yl)-N,3-dimethylbutanamide formation at 1 mM preincubated with NADPH regenerating system followed by microsome addition measured after 15 to 60 mins by HR-HPLC-MS method; type: ADME; conditions: 1000 µM
[11] = Drug level in Sprague-Dawley rat liver microsomes assessed as CYP450-mediated compound formation treated with (S)-2-((S)-N,3-dimethyl-2-(methylamino)butanamido)-N,3-dimethyl-N-((S)-3-methyl-1-(methyl((S)-3-methyl-1-oxo-1-(phenethylamino)butan-2-yl)amino)-1-oxobutan-2-yl)butanamide at 1 mM preincubated with NADPH regenerating system followed by microsome addition measured after 15 to 60 mins by HR-HPLC-MS method; type: ADME; conditions: 1000 µM

SMILES | Drug metabolism [8] | growth inhibition (GI) (Escherichia coli) | growth inhibition (GI) (Staphylococcus aureus [2]) | growth inhibition (GI) (Enterococcus faecalis) | growth inhibition (GI) (Staphylococcus aureus [3]) | growth inhibition (GI) (Pseudomonas aeruginosa) | growth inhibition (GI) (Micrococcus luteus) | other results
CN[C@@H](CC(C)C)C(=O)N(C)[C@@H](CC(C)C)C(=O)N(C)[C@@H](CC(C)C)C(=O)N(C)[C@@H](CC(C)C)C(=O)NCCc1ccccc1 | – | inactive | inactive | inactive | inactive | inactive | inactive | IC50 (L6): 16.7 µg/mL (≈ 26.5 µM); IC50 ([1]; STIB900, 72 h): 1.4 to 2.1 µg/mL (≈ 2.22 to 3.33 µM)
CC(C)[C@H](N)C(=O)N[C@H](C(=O)N[C@H](C(=O)N[C@H](C(=O)NCCc1ccccc1)C(C)C)C(C)C)C(C)C (H-VVVV-NHPhenethyl) | – | – | – | – | – | – | – | Drug metabolism [4]: Metabolite_Detected; half-life at 500 µM [5]: 30 min; Drug metabolism [6]: Metabolite_Detected; Drug metabolism [7]: Metabolite_Detected
CC(C)[C@H](N)C(=O)N[C@H](C(=O)N[C@H](C(=O)N[C@H](C(=O)NCCc1ccccc1)C(C)C)C(C)(C)O)C(C)C (H-VV[Val(3-OH)]V-NHPhenethyl) | Metabolite_Detected | – | – | – | – | – | – | –
CN[C@@H](CC(C)C)C(=O)N(C)[C@@H](CC(C)C)C(=O)N(C)[C@@H](CC(C)C)C(=O)N(C)[C@@H](CC(C)C)C(=O)NCCc1ccc(O)cc1 (H-[NMeL][NMeL][NMeL][NMeL]-{NH(4-OH-phenethyl)}) | – | inactive | inactive | inactive | inactive | inactive | inactive | IC50 (L6): 30.6 µg/mL (≈ 47.4 µM)
CN[C@H](C(=O)N(C)[C@H](C(=O)N(C)[C@H](C(=O)N(C)[C@H](C(=O)NCCc1ccccc1)C(C)C)C(C)C)C(C)C)C(C)C (H-[NMeV][NMeV][NMeV][NMeV]-NHPhenethyl) | – | inactive | inactive | inactive | inactive | inactive | inactive | Activity [1]: Active; half-life at 500 µM [5]: > 240 min; Drug metabolism [9]: Metabolite_Detected; Drug metabolism [10]: Metabolite_Detected
CN[C@H](C(=O)N(C)[C@H](C(=O)N(C)[C@H](C(=O)N(C)[C@H](C(=O)NCCc1ccc(O)cc1)C(C)C)C(C)C)C(C)C)C(C)C (H-[NMeV][NMeV][NMeV][NMeV]-{NH(4-OH-phenethyl)}) | – | – | – | – | – | – | – | Drug metabolism [11]: Metabolite_Detected
CN[C@H](C(=O)N(C)[C@H](C(=O)N(C)[C@H](C(=O)N(C)[C@H](C(=O)NCCc1ccccc1)C(C)C)C(C)C)C(C)C)C(C)(C)O (H-[NMeVal(β-OH)][NMeV][NMeV][NMeV]-NHPhenethyl) | – | – | – | – | – | – | – | Drug metabolism [11]: Metabolite_Detected

Continued, in another order:

Drug metabolism [8] | SMILES | growth inhibition (GI) (Escherichia coli) | growth inhibition (GI) (Staphylococcus aureus [2]) | growth inhibition (GI) (Enterococcus faecalis) | growth inhibition (GI) (Staphylococcus aureus [3]) | growth inhibition (GI) (Pseudomonas aeruginosa) | growth inhibition (GI) (Micrococcus luteus) | other results
Metabolite_Detected | CC(C)[C@H](N)C(=O)N[C@H](C(=O)N[C@H](C(=O)N[C@H](C(=O)NCCc1ccc(O)cc1)C(C)C)C(C)C)C(C)C (H-VVVV-{NH(4-OH-phenethyl)}) | – | – | – | – | – | – | –
Metabolite_Detected | CC(C)[C@H](N)C(=O)N[C@H](C(=O)N[C@H](C(=O)N[C@H](C(=O)NCCc1ccccc1)C(C)C)C(C)C)C(C)(C)O (H-V[Val(3-OH)]VV-NHPhenethyl) | – | – | – | – | – | – | –
